We go through one molecule from PMC12220853, “Natural aminosterols inhibit NMDA receptors with low nanomolar potency” (The Febs Journal, 2025).

In this test the target is T1, N-methyl-D-aspartate receptor (NMDAR), native in hippocampal neurons (Rattus norvegicus, UniProt P35439+Q00959+Q00960).
T1 construct: gene Grin1; native heteromeric receptor in primary rat hippocampal neurons; with GluN2A / GluN2B (native mixture, mostly GluN1/2A/2B)
The test is described as follows: whole-cell patch clamp of NMDA-activated currents in primary rat hippocampal neurons ([…] NMDA, […] glycine). The test is classed as cell-based.

T1 sequence (Q00959 23-1464, other chains not shown): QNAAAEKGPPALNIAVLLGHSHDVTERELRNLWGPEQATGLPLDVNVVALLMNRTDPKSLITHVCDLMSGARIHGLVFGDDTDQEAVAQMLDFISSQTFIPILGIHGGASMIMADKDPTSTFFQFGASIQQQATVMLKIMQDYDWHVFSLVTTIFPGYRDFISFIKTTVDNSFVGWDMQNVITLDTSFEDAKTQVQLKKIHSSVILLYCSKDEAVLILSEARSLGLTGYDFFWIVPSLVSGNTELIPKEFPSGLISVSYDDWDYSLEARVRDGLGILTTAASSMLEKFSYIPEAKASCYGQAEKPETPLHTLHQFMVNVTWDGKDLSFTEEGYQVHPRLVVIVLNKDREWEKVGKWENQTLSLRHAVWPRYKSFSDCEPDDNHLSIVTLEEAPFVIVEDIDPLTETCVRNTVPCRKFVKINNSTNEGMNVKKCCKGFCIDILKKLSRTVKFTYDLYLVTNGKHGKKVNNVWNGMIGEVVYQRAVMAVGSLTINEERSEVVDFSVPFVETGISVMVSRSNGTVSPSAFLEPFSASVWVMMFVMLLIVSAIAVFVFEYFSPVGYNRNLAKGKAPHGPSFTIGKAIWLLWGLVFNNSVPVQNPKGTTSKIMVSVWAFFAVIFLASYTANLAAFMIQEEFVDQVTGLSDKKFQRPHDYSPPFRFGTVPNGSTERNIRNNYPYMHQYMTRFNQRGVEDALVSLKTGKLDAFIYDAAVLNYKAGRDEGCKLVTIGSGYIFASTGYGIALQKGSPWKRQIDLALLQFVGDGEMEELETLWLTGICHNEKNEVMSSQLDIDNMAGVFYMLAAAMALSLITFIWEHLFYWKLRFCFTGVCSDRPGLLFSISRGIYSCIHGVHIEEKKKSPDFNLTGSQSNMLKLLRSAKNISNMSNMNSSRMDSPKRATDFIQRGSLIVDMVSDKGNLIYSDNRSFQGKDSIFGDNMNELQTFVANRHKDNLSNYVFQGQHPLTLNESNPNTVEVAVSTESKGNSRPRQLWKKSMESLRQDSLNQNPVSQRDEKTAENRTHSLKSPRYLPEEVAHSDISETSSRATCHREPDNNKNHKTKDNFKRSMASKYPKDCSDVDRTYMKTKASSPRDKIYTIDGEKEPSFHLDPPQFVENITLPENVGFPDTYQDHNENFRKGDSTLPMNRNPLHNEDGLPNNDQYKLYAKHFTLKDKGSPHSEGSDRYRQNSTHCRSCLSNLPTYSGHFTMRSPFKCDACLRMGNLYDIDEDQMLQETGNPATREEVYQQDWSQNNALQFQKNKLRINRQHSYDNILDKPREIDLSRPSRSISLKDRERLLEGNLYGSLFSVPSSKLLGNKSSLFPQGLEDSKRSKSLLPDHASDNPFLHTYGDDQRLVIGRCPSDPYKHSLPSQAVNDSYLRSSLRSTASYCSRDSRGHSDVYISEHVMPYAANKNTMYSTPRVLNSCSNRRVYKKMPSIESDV
T1 sequence (Q00960 27-1482, other chains not shown): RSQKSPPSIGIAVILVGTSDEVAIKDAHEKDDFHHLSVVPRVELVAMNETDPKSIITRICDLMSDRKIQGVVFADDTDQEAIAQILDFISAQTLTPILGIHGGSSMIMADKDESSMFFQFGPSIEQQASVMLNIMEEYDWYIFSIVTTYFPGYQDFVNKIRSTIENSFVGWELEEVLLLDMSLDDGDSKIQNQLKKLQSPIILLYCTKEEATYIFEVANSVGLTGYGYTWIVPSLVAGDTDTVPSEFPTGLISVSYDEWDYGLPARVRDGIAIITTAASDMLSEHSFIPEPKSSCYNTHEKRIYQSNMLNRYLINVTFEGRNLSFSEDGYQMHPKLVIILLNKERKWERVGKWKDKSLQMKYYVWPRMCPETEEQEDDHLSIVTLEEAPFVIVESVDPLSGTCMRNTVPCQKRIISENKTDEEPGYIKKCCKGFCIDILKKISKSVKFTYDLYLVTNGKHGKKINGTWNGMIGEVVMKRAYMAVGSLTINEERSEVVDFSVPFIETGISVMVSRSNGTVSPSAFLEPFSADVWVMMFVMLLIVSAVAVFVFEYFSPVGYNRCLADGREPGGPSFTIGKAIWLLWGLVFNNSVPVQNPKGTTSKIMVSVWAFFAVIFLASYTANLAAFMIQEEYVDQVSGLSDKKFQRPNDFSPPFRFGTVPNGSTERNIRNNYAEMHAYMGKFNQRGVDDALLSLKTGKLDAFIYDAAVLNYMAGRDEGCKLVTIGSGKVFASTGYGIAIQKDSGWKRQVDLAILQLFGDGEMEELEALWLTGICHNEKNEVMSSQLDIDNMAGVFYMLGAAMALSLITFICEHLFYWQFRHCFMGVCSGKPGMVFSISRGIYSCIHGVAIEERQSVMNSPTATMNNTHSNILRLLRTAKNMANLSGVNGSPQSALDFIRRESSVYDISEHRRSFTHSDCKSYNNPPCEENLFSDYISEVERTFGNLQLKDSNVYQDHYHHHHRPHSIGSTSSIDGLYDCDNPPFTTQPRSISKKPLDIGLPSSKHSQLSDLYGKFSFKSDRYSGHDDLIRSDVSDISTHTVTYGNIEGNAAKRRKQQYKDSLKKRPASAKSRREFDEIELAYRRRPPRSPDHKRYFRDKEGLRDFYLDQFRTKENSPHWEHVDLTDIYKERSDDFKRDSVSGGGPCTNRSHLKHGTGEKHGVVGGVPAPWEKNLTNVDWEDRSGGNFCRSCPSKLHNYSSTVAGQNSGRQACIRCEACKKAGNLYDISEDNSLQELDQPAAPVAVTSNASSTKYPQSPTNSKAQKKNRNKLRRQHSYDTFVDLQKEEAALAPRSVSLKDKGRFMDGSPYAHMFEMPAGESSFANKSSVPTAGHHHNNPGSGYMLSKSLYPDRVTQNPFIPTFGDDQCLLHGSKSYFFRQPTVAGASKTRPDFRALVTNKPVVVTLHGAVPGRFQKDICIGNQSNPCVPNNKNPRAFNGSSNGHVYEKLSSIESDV

`CC(C)[C@@H](CC[C@@H](C)[C@H]1CC[C@H]2[C@@H]3[C@H](O)C[C@H]4C[C@@H](NCCCNCCCCNCCCN)CC[C@]4(C)[C@H]3CC[C@]12C)OS(=O)(=O)O` [TRO, trodusquemine] came in with an IC50 of 5.1 nM. This lies in the single-digit nanomolar range.
